The conditions of series [1]: ref FDA label, cited from earlier work; for Structural cardiotoxin?: FDA label references heart failure or a decrease in left ventricular ejection fraction; for Functional cardiotoxin?: compound annotation.
For series [2], the system named is cardiac microtissues. Put plainly: Ingenuity Pathway Analysis over-representation of differentially expressed genes (activation Z-score). Type of series: cell-based, human. The conditions noted are these: 48hr high; Group 1.
Series [3] concerns cardiac microtissues. Put plainly: Transcriptomic profiling (mRNA-seq) and DESeq2 differential gene expression analysis in cardiac microtissues. The conditions noted are these: absolute log2(Fold-Change) > 1, FDR p ≤ 0.05; for number of significant differentially expressed genes, 6hr high / number of significant differentially expressed genes, 48hr high / number of significant differentially expressed genes, 72hr high: high concentration; for number of significant differentially expressed genes, 6hr low / number of significant differentially expressed genes, 48hr low / number of significant differentially expressed genes, 72hr low: low concentration.

Counter-ions that a name gives are not always drawn.

`CC(C)NCC(O)c1ccc(O)c(O)c1` (stereo not drawn) [Isoproterenol HCl]: in series [1], the “Structural cardiotoxin?” value was “Y” and the “Functional cardiotoxin?” value is on record as “Y”.
Turning to `CNC(=O)c1ccccc1Sc1ccc2c(/C=C/c3ccccn3)n[nH]c2c1` [Axitinib], in series [1], the “Structural cardiotoxin?” value is listed as “N” and the “Functional cardiotoxin?” value is given as “Y”.
Turning to `O=C(C1CCCCC1)N1CC(=O)N2CCc3ccccc3C2C1` (stereo not drawn) [Praziquantel], in series [1], the “Structural cardiotoxin?” value was “N” and the “Functional cardiotoxin?” value is reported as “N”.
Consider `Cc1ccc(C(=O)Nc2ccc(CN3CCN(C)CC3)c(C(F)(F)F)c2)cc1C#Cc1cnc2cccnn12` [Ponatinib], for which, in series [1], the “Structural cardiotoxin?” value is listed as “Y” and the “Functional cardiotoxin?” value is recorded as “Y”.
With `COc1cccc2c1C(=O)c1c(O)c3c(c(O)c1C2=O)C[C@@](O)(C(C)=O)C[C@@H]3O[C@H]1C[C@H](N)[C@H](O)[C@H](C)O1` [Daunorubicin], in series [1], the “Structural cardiotoxin?” value is given as “Y” and the “Functional cardiotoxin?” value is listed as “Y”.
In the case of `CCc1ccc(CCOc2ccc(CC3SC(=O)NC3=O)cc2)nc1` (stereo not drawn) [Pioglitazone], in series [1], the “Structural cardiotoxin?” value is “Y” and the “Functional cardiotoxin?” value is recorded as “Y”.
As for `Nc1ccc(S(=O)(=O)c2ccc(N)cc2)cc1` [Dapsone], in series [1], the “Structural cardiotoxin?” value is “N” and the “Functional cardiotoxin?” value is given as “N”.
In the case of `C#Cc1cccc(Nc2ncnc3cc(OCCOC)c(OCCOC)cc23)c1` [Erlotinib], in the series on cardiac microtissues [2], the “activation Z-score: Cardiac Hypertrophy Signaling” value is -2.236; the “activation Z-score: Cell Cycle Control of Chromosomal Replication” value was -3.742; the “activation Z-score: Cell Cycle Regulation by BTG Family Proteins” value is recorded as -2; the “activation Z-score: Cyclins and Cell Cycle Regulation” value is listed as -2.111. Moreover, in the series with cardiac microtissues [2], the “activation Z-score: D-myo-inositol-5-phosphate Metabolism” value is on record as -2.449; the “activation Z-score: DNA Methylation and Transcriptional Repression Signaling” value is given as -2.646; the “activation Z-score: Estrogen-mediated S-phase Entry” value is recorded as -2.121; the “activation Z-score: Factors Promoting Cardiogenesis in Vertebrates” value is listed as -0.816. For the same molecule, in the series with cardiac microtissues [2], the “activation Z-score: G-Protein Coupled Receptor Signaling” value is -2.357, the “activation Z-score: GP6 Signaling Pathway” value is reported as -1.633, the “activation Z-score: Glioma Invasiveness Signaling” value is on record as -2 and the “activation Z-score: HIF1Î± Signaling” value is on record as -2.121. In the series with cardiac microtissues [2], the “activation Z-score: HMGB1 Signaling” value was -2.236, the “activation Z-score: Hepatic Fibrosis Signaling Pathway” value is reported as -2.138, the “activation Z-score: ILK Signaling” value was -1.134 and the “activation Z-score: Insulin Secretion Signaling Pathway” value is -2.121. In the series with cardiac microtissues [2], the “activation Z-score: Integrin Signaling” value was -2.449, the “activation Z-score: Kinetochore Metaphase Signaling Pathway” value is -3.402, the “activation Z-score: Mitotic Roles of Polo-Like Kinase” value is on record as -2.309 and the “activation Z-score: Protein Kinase A Signaling” value was -1.155. For the same molecule, in the series with cardiac microtissues [2], the “activation Z-score: Pyridoxal 5'-phosphate Salvage Pathway” value was -2.646, the “activation Z-score: RHOGDI Signaling” value was 1.89, the “activation Z-score: Regulation Of The Epithelial Mesenchymal Transition By Growth Factors Pathway” value is -2.449 and the “activation Z-score: Role of NFAT in Cardiac Hypertrophy” value is recorded as -2. Also, in the series on cardiac microtissues [2], the “activation Z-score: Salvage Pathways of Pyrimidine Ribonucleotides” value is -2.828, the “activation Z-score: Senescence Pathway” value amounted to 0.728, the “activation Z-score: Sphingosine-1-phosphate Signaling” value is given as -2 and the “activation Z-score: Superpathway of Inositol Phosphate Compounds” value was -2.449. For the same molecule, in the series with cardiac microtissues [2], the “activation Z-score: Thrombin Signaling” value was -2.236, the “activation Z-score: White Adipose Tissue Browning Pathway” value is reported as -1.633, the “activation Z-score: Wound Healing Signaling Pathway” value was -2.111 and the “activation Z-score: cAMP-mediated signaling” value was -1.633. The “activation Z-score: tRNA Charging” value with cardiac microtissues [2] amounted to 2.646. In addition, in series [1], the “Structural cardiotoxin?” value was “N” and the “Functional cardiotoxin?” value is given as “Y”. Further, in the series on cardiac microtissues [3], the “number of significant differentially expressed genes, 6hr high” value came out at 56; the “number of significant differentially expressed genes, 6hr low” value was determined as 39; the “number of significant differentially expressed genes, 48hr high” value is listed as 634; the “number of significant differentially expressed genes, 48hr low” value is listed as 152. For the same molecule, in the series with cardiac microtissues [3], the “number of significant differentially expressed genes, 72hr high” value stood at 283 and the “number of significant differentially expressed genes, 72hr low” value worked out at 78.
Take `O=P1(N(CCCl)CCCl)NCCCO1` (stereo not drawn) [Cyclophosphamide]: in series [1], the “Structural cardiotoxin?” value was “Y” and the “Functional cardiotoxin?” value is listed as “Y”.
In the case of `CN1CCN(C2=Nc3cc(Cl)ccc3Nc3ccccc32)CC1` [Clozapine], in series [1], the “Functional cardiotoxin?” value was “Y”. For the same molecule, in the series on cardiac microtissues [3], the “number of significant differentially expressed genes, 6hr high” value was 16; the “number of significant differentially expressed genes, 6hr low” value was 2; the “number of significant differentially expressed genes, 48hr high” value stood at 25; the “number of significant differentially expressed genes, 48hr low” value stood at 4. In addition, in the series on cardiac microtissues [3], the “number of significant differentially expressed genes, 72hr high” value was determined as 60 and the “number of significant differentially expressed genes, 72hr low” value turned out to be 1.
With `CCn1cc(C(=O)O)c(=O)c2cc(F)c(N3CCNC(C)C3)c(F)c21` (stereo not drawn) [Lomefloxacin], in series [1], the “Structural cardiotoxin?” value is “Y” and the “Functional cardiotoxin?” value was “Y”.
On to `CCCCNC(=O)NS(=O)(=O)c1ccc(C)cc1` [Tolbutamide], for which, in series [1], the “Structural cardiotoxin?” value is “N” and the “Functional cardiotoxin?” value is “N”.
As for `Cc1ccc(-c2cc(C(F)(F)F)nn2-c2ccc(S(N)(=O)=O)cc2)cc1` [Celecoxib], in series [1], the “Structural cardiotoxin?” value was “Y” and the “Functional cardiotoxin?” value was “Y”.
Take `C[C@@H]1C[C@H]2[C@@H]3CCC4=CC(=O)C=C[C@]4(C)[C@@]3(F)[C@@H](O)C[C@]2(C)[C@@]1(O)C(=O)CO` [Dexamethasone]: in series [1], the “Structural cardiotoxin?” value is listed as “N” and the “Functional cardiotoxin?” value is “N”.
Take `Nc1nc2c(ncn2COCCO)c(=O)[nH]1` [Acyclovir]: in the series on cardiac microtissues [3], the “number of significant differentially expressed genes, 6hr high” value is 3; the “number of significant differentially expressed genes, 6hr low” value is recorded as 4; the “number of significant differentially expressed genes, 48hr high” value turned out to be 0; the “number of significant differentially expressed genes, 48hr low” value was 0. In addition, in the series with cardiac microtissues [3], the “number of significant differentially expressed genes, 72hr high” value is 0 and the “number of significant differentially expressed genes, 72hr low” value is 0.
Turning to `N#CC[C@H](C1CCCC1)n1cc(-c2ncnc3[nH]ccc23)cn1` [Ruxolitinib], in series [1], the “Structural cardiotoxin?” value is “N” and the “Functional cardiotoxin?” value is “N”.
`CN(C)CCN(Cc1cccs1)c1ccccn1` [Methapyrilene]: in series [1], the “Structural cardiotoxin?” value is “N”.
As for `COC(=O)Nc1nc2ccc(C(=O)c3ccccc3)cc2[nH]1` [Mebendazole], in the series on cardiac microtissues [3], the “number of significant differentially expressed genes, 6hr high” value came to 195; the “number of significant differentially expressed genes, 6hr low” value stood at 27; the “number of significant differentially expressed genes, 48hr high” value is 407; the “number of significant differentially expressed genes, 48hr low” value came to 79. Moreover, in the series on cardiac microtissues [3], the “number of significant differentially expressed genes, 72hr high” value came to 536 and the “number of significant differentially expressed genes, 72hr low” value is 192.
As for `CC1(C)S[C@@H]2[C@H](NC(=O)[C@H](N)c3ccc(O)cc3)C(=O)N2[C@H]1C(=O)O` [Amoxacillin], in series [1], the “Structural cardiotoxin?” value is given as “N” and the “Functional cardiotoxin?” value is given as “N”.
As for `Cc1ccc(C)c(OCCCC(C)(C)C(=O)O)c1` [Gemfibrozil], in series [1], the “Structural cardiotoxin?” value is given as “N” and the “Functional cardiotoxin?” value is listed as “N”.
Regarding `O=C1C[C@@H](c2ccc(O)cc2)Oc2cc(O)cc(O)c21` [Narigenin, Naringenin], in series [1], the “Structural cardiotoxin?” value is listed as “N” and the “Functional cardiotoxin?” value was “N”.
`COC(=O)[C@@H]1CC2=CC(=O)CC[C@]2(C)[C@@]23O[C@@H]2C[C@@]2(C)[C@@H](CC[C@@]24CCC(=O)O4)[C@H]13` [Eplerenone]: in series [1], the “Structural cardiotoxin?” value is “N” and the “Functional cardiotoxin?” value is given as “Y”.
Regarding `Cc1ccc(Nc2nccc(N(C)c3ccc4c(C)n(C)nc4c3)n2)cc1S(N)(=O)=O` [Pazopanib], in series [1], the “Structural cardiotoxin?” value is “N” and the “Functional cardiotoxin?” value is on record as “Y”.
Regarding `O=C1CC2(CCCC2)CC(=O)N1CCCCN1CCN(c2ncccn2)CC1` [Buspirone HCl], in series [1], the “Structural cardiotoxin?” value is “N” and the “Functional cardiotoxin?” value is reported as “N”. Moreover, in the series with cardiac microtissues [3], the “number of significant differentially expressed genes, 6hr high” value was determined as 42; the “number of significant differentially expressed genes, 6hr low” value is 10; the “number of significant differentially expressed genes, 48hr high” value came to 14; the “number of significant differentially expressed genes, 48hr low” value is listed as 6. In the series on cardiac microtissues [3], the “number of significant differentially expressed genes, 72hr high” value amounted to 8 and the “number of significant differentially expressed genes, 72hr low” value came to 4.
As for `C[C@@H](Oc1cc(-c2cnn(C3CCNCC3)c2)cnc1N)c1c(Cl)ccc(F)c1Cl` [Crizotinib], in series [1], the “Structural cardiotoxin?” value is given as “N” and the “Functional cardiotoxin?” value is recorded as “Y”.
Consider `COc1cccc2c1C(=O)c1c(O)c3c(c(O)c1C2=O)C[C@@](O)(C(=O)CO)C[C@@H]3O[C@H]1C[C@H](N)[C@@H](O)[C@H](C)O1` [Epirubicin], for which, in series [1], the “Structural cardiotoxin?” value was “Y” and the “Functional cardiotoxin?” value is recorded as “Y”.
With `NC[C@H]1O[C@H](O[C@H]2[C@H](O)[C@@H](O[C@H]3O[C@H](CO)[C@@H](O)[C@H](N)[C@H]3O)[C@H](N)C[C@@H]2N)[C@H](N)C[C@@H]1O` [Tobramycin], in series [1], the “Structural cardiotoxin?” value is on record as “N” and the “Functional cardiotoxin?” value is recorded as “N”.
Consider `CN(C)C/C=C/C(=O)Nc1cc2c(Nc3ccc(F)c(Cl)c3)ncnc2cc1O[C@H]1CCOC1` [Afatinib], for which, in series [1], the “Structural cardiotoxin?” value is on record as “N” and the “Functional cardiotoxin?” value is reported as “N”.
Regarding `Cc1cc(Nc2ncc(Cl)c(Nc3ccccc3S(=O)(=O)C(C)C)n2)c(OC(C)C)cc1C1CCNCC1` [Ceritinib], in series [1], the “Structural cardiotoxin?” value is reported as “N” and the “Functional cardiotoxin?” value is reported as “Y”.
For `CS(=O)(=O)c1ccc(C2=C(c3ccccc3)C(=O)OC2)cc1` [Rofecoxib], in series [1], the “Structural cardiotoxin?” value was “Y” and the “Functional cardiotoxin?” value is recorded as “Y”.

The values are drawn from PMC11213733, “Computational approaches identify a transcriptomic fingerprint of drug-induced structural cardiotoxicity” (Cell Biology and Toxicology, 2024).
